Laboratory results: PMC11247487, “Discovery of Dual MER/AXL Kinase Inhibitors as Bifunctional Small Molecules for Inhibiting Tumor Growth and Enhancing Tumor Immune Microenvironment” (Journal of Medicinal Chemistry, 2024)
Where “and” joins values, the source holds several entries; their conditions need not be identical. Equal values may be shown once. Read-outs that look alike come from different tables or passages of the source. Each block holds one molecule with its values, some of them ahead of it.

Columns and labels:
MER = target: T1, MER (Homo sapiens, UniProt Q12866); assay: MER enzyme inhibition assay (in-house Kinase-Glo); assay type: biochemical; conditions: for inhibition at 1 µM: read-out: MER inh. @ 1 μM
T1 construct: A purified kinase (MER or AXL) was incubated with a compound or DMSO
T1 sequence (Q12866 21-999): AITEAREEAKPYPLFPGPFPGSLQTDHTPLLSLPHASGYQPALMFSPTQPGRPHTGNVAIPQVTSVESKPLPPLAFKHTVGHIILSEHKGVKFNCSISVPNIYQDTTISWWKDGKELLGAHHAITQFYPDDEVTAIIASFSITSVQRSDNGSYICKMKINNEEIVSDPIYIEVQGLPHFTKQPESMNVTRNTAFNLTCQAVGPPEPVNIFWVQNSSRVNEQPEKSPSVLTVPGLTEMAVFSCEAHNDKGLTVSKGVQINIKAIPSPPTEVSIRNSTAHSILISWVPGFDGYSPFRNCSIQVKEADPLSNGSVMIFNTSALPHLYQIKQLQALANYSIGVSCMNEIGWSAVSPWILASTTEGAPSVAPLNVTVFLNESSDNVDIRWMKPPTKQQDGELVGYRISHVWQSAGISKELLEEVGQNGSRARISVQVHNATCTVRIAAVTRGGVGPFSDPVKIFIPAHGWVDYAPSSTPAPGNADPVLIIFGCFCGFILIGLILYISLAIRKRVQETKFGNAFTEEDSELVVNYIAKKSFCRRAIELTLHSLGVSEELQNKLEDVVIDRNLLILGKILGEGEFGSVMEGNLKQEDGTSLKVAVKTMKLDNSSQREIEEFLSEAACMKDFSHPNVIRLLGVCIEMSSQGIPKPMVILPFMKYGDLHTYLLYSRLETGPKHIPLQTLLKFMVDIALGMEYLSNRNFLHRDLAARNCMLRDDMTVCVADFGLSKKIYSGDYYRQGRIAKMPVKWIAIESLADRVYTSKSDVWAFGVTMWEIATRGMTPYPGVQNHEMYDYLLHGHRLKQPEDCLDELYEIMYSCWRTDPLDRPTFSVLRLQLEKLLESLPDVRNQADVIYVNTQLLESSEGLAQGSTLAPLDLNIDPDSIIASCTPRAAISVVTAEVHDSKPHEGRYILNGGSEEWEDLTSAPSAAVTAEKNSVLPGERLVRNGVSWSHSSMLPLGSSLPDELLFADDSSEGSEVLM

AXL = target: T2, AXL (Homo sapiens, UniProt P30530); assay: AXL enzyme inhibition assay (ADP-Glo); assay type: biochemical; conditions: for inhibition at 1 µM: read-out: AXL inh. @ 1 μM
T2 construct: A purified kinase (MER or AXL) was incubated with a compound or DMSO
T2 sequence (P30530 26-894): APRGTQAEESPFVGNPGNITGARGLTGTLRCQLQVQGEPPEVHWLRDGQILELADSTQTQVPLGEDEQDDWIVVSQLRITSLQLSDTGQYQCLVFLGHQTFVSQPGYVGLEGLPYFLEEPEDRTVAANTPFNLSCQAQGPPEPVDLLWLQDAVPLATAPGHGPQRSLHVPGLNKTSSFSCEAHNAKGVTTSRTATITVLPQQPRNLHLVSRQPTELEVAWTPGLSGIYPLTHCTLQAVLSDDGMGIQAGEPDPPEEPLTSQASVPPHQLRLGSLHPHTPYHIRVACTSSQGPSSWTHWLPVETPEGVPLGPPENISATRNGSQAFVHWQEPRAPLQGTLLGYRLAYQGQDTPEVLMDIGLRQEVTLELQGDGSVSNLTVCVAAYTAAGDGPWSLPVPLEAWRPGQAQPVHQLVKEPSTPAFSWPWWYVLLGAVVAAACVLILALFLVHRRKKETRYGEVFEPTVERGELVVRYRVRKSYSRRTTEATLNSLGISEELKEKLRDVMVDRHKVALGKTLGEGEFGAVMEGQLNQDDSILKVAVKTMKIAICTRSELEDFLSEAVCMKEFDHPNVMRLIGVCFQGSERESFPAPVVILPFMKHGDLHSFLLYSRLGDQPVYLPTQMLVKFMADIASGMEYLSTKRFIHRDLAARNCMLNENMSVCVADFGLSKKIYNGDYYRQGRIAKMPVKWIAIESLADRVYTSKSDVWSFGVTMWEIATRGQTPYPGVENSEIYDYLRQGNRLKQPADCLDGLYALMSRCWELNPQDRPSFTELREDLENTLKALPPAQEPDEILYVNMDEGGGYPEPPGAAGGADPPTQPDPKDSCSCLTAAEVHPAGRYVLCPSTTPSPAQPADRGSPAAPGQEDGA

EGFR^WT = EGFR^WT (Homo sapiens, UniProt P00533); assay: EGFR^WT in-house Kinase-Glo assay; assay type: biochemical; conditions: for inhibition at 1 µM: read-out: EGFR^WT inh. @ 1 μM
EGFR^DM (T790M/L858R) = EGFR^DM (T790M/L858R) (Homo sapiens, UniProt P00533, L858R/T790M); assay: EGFR^DM in-house Kinase-Glo assay; assay type: biochemical
Ba/F3-MER cells = assay: Cell viability assay (MTS); assay type: cell-based; conditions: 72 h
[1] = In vivo pharmacokinetics study; conditions: mice; for clearance at 24 h: read-out: iv CL; for Vd at 24 h: read-out: iv Vss; for iv DNAUC(0–inf) / po DNAUC(0–inf) / po DNCmax: dose-normalized
Protocol: The animal studies were performed according to NHRI institutional animal care and committee-approved procedures. Male ICR mice (25–35 g) were obtained from BioLASCO (Taiwan Co., Ltd., Ilan, Taiwan). […] All samples were analyzed for the parent drug by LC-MS/MS. Plasma concentration data were analyzed with a noncompartmental method.

[2] = In vitro microsomal stability assay; assay type: in vitro ADME; conditions: 1 μM, mouse liver microsomes, percent remaining at 30 min
Protocol: All incubations were initiated with the addition of NADPH-generating system at 37 °C for 30 min. At 0 and the end of incubation, 100 μL of aliquots were taken from the incubation mixture and placed into centrifuge tubes containing 100 μL of ice-cold acetonitrile to terminate the metabolic reaction. The samples were vortexed and centrifuged, and then, the supernatant injected onto LC/MS. Percent of remaining of each compound was calculated by comparing peak areas at 30 min to that at the initiation of incubation.

[3] = male, ICR, mouse, plasma, iv 2 mg/kg, po 10 mg/kg
[4] = male, ICR, mouse, plasma, iv 2 mg/kg
[5] = male, ICR, mouse, plasma, iv 2 mg/kg, read-out: iv T1/2 (converted)
[6] = male, ICR, mouse, plasma, po 10 mg/kg

Molecule: N^1-(4-{[5-(3-Aminophenyl)-6-phenylfuro[2,3-d]pyrimidin-4-yl]amino}phenyl)-N^1-(4-fluorophenyl)cyclopropane-1,1-dicarboxamide [Compound 15]
MER inh. @ 1 μM (MER): 19%
AXL inh. @ 1 μM (AXL): 92%
EGFR^WT inh. @ 1 μM (EGFR^WT): 1%
EGFR^DM inh. @ 1 μM (EGFR^DM (T790M/L858R)): −4%
IC50 (Ba/F3-MER cells): 713 nM

Molecule: CNc1cccc(-c2c(-c3cnn(C)c3)oc3ncnc(Oc4ccc(NC(=O)c5cccn(-c6ccc(F)cc6)c5=O)cc4)c23)c1 [Compound 29, 1-(4-Fluorophenyl)-N-[4-({5-[3-(methylamino)phenyl]-6-(1-methyl-1H-pyrazol-4-yl)furo[2,3-d]pyrimidin-4-yl}oxy)phenyl]-2-oxo-1,2-dihydropyridine-3-carboxamide]
IC50 (Ba/F3-MER cells): 1.2 nM
bioavailability at 24 h [1, 3]: 0.5%
clearance at 24 h [1, 4]: 5.3 mL/min/kg
half-life at 24 h [1, 5]: 510 min
Vd at 24 h [1, 4]: 1.3 L/kg
Tmax at 24 h [1, 6]: 24 h
iv DNAUC(0–inf) ([1]; iv 2 mg/kg): 3,330.5 ng × hr/mL
po DNAUC(0–inf) ([1]; po 10 mg/kg): 15.3 ng·h/mL
po DNCmax ([1]; po 10 mg/kg): 1.4 ng/mL
Microsomal stability @ 30 min [2]: 100%

Molecule: N^1-(4-{[5-(3-Aminophenyl)-6-phenylfuro[2,3-d]pyrimidin-4-yl]oxy}phenyl)-N^1-(4-fluorophenyl)cyclopropane-1,1-dicarboxamide [Compound 12]
MER inh. @ 1 μM (MER): 71%
AXL inh. @ 1 μM (AXL): 100%
EGFR^WT inh. @ 1 μM (EGFR^WT): 0%
EGFR^DM inh. @ 1 μM (EGFR^DM (T790M/L858R)): −9%
IC50 (Ba/F3-MER cells): 73.6 nM

Molecule: N^1-{4-[(5,6-Diphenylfuro[2,3-d]pyrimidin-4-yl)oxy]phenyl}-N^1-(4-fluorophenyl)cyclopropane-1,1-dicarboxamide [Compound 13]
MER inh. @ 1 μM (MER): 41%
AXL inh. @ 1 μM (AXL): 98%
EGFR^WT inh. @ 1 μM (EGFR^WT): 3%
EGFR^DM inh. @ 1 μM (EGFR^DM (T790M/L858R)): 2%
IC50 (Ba/F3-MER cells): 658 nM

Molecule: C=CC(=O)Nc1cccc(-c2c(-c3ccccc3)oc3ncnc(Oc4ccc(NC(=O)C5(C(=O)Nc6ccc(F)cc6)CC5)cc4)c23)c1 [Compound 11]
inhibition at 1 µM (MER): 14%
inhibition at 1 µM (AXL): 96%
inhibition at 1 µM (EGFR^WT): 40%
IC50 (EGFR^DM (T790M/L858R); cell marked b = IC50 value): 42 nM
IC50 (Ba/F3-MER cells): 618 nM

Second part, the molecule after the results:

MER inh. @ 1 μM (MER): 4%
AXL inh. @ 1 μM (AXL): 53%
EGFR^WT inh. @ 1 μM (EGFR^WT): 4%
EGFR^DM inh. @ 1 μM (EGFR^DM (T790M/L858R)): 1%
IC50 (Ba/F3-MER cells): 3630 nM
Molecule: N^1-(4-Fluorophenyl)-N^1-{4-[(6-phenylfuro[2,3-d]pyrimidin-4-yl)oxy]phenyl}cyclopropane-1,1-dicarboxamide [Compound 14]

MER inh. @ 1 μM (MER): 9%
AXL inh. @ 1 μM (AXL): 95%
EGFR^WT inh. @ 1 μM (EGFR^WT): 1%
EGFR^DM inh. @ 1 μM (EGFR^DM (T790M/L858R)): −6%
IC50 (Ba/F3-MER cells): 1140 nM
Molecule: (4-{[5-(3-Aminophenyl)-6-phenylfuro[5,4-d]pyrimidin-4-yl]oxy}phenyl)-N-(phenylacetyl)carbamothioic amide [Compound 16]

IC50 (MER): 5.8 nM
IC50 (AXL): 15.8 nM
IC50 (Ba/F3-MER cells): 0.7 nM
Molecule: CN1CCN(c2ccc(-c3c(-c4cnn(C)c4)oc4ncnc(Oc5ccc(NC(=O)c6cccn(-c7ccc(F)cc7)c6=O)cc5)c34)cc2)CC1 [Compound 41, 1-(4-Fluorophenyl)-N-[4-({5-[4-(4-methylpiperazin-1-yl)phenyl]-6-(1-methyl-1H-pyrazol-4-yl)furo[2,3-d]pyrimidin-4-yl}oxy)phenyl]-2-oxo-1,2-dihydropyridine-3-carboxamide]

bioavailability [1, 3]: > 20%
bioavailability at 24 h [1, 3]: 26.2%
clearance at 24 h [1, 4]: 84 mL/min/kg
half-life at 24 h [1, 5]: 672 min
Vd at 24 h [1, 4]: 8 L/kg
Tmax at 24 h [1, 6]: 2 h
half-life at 24 h ([1]; male, ICR, mouse, plasma, po 10 mg/kg, read-out: po T1/2 (converted)): 144 min
iv DNAUC(0–inf) ([1]; iv 2 mg/kg): 208.0 ng·h/mL
po DNAUC(0–inf) ([1]; po 10 mg/kg): 54.4 ng·h/mL
po DNCmax ([1]; po 10 mg/kg): 5.7 ng/mL
Microsomal stability @ 30 min [2]: 67%
Molecule: CN(C)Cc1ccc(-c2c(-c3cnn(C)c3)oc3ncnc(Oc4ccc(NC(=O)c5cccn(-c6ccc(F)cc6)c5=O)cc4)c23)cc1 [Compound 39, N-{4-[(5-{4-[(Dimethylamino)methyl]phenyl}-6-(1-methyl-1H-pyrazol-4-yl)furo[2,3-d]pyrimidin-4-yl)oxy]phenyl}-1-(4-fluorophenyl)-2-oxo-1,2-dihydropyridine-3-carboxamide]

inhibition at 1 µM (MER): 70%
inhibition at 1 µM (AXL): 100%
inhibition at 1 µM (EGFR^WT): 1%
inhibition at 1 µM (EGFR^DM (T790M/L858R); read-out: EGFR^DM inh. @ 1 μM): -1%
IC50 (Ba/F3-MER cells): 8.4 nM and 8.2 nM
Molecule: Nc1cccc(-c2c(-c3ccccc3)oc3ncnc(Oc4ccc(NC(=O)c5cccn(-c6ccc(F)cc6)c5=O)cc4)c23)c1 [Compound 17, N-(4-{[5-(3-Aminophenyl)-6-phenylfuro[5,4-d]pyrimidin-4-yl]oxy}phenyl)-1-(4-fluorophenyl)-2-oxo-1,2-dihydropyridine-3-carboxamide]

IC50 (MER): 2 nM
IC50 (AXL): 8 nM
IC50 (Ba/F3-MER cells): 1.6 nM
Molecule: Cn1cc(-c2oc3ncnc(Oc4ccc(NC(=O)c5cccn(-c6ccc(F)cc6)c5=O)cc4)c3c2-c2ccc(N3CCNCC3)cc2)cn1 [Compound 40, 1-(4-Fluorophenyl)-N-[4-({6-(1-methyl-1H-pyrazol-4-yl)-5-[4-(piperazin-1-yl)phenyl]furo[2,3-d]pyrimidin-4-yl}oxy)phenyl]-2-oxo-1,2-dihydropyridine-3-carboxamide]
